In US20240165196A1, “Beta-Lactamase Inhibitors” (VIB VZW, priority 2021, published 2024):
Converted amounts (≈) assume the structure as drawn. Peptide text beside a SMILES is read from it.

Assays:
[1] = system: E. coli NDM ? b; assay: antimicrobial susceptibility testing, VITEK 2 AST Cards; format: cell-based; as to Interpretation: key: S, susceptible; I, intermediate; R, resistant
Protocol: (§1) Beta-lactamase clinical samples were collected from University Hospitals Leuven and tested for ESBL production using the disk diffusion method^61. The beta-lactamase reference isolates were purchased from IHMA International Health management associates. Bacterial strains were cultivated in Mueller Hinton Broth (MHB, Difco) at 37° C. Whenever required growth media were supplemented with appropriate antibiotic to the medium or plates (kanamycin 30 μg/mL, L-arabinose 0.5 mg/mL, and IPTG 1 mM/mL). Escherichia coli BL21 (Thermo Fisher Scientific, Belgium) was used for cloning and plasmid amplification. For selection of antibiotic resistance colonies, E. coli carrying plasmids was grown in LB agar plates supplemented with the relevant antibiotic. Bacterial CFU counting was done on blood agar plates (BD Biosciences, Belgium) or MHA agar plates. Species identification and antibiograms for all clinical isolates were performed using MALDI-Tof and VITEK® 2 automated system (BioMérieux, France).

[2] = system: E. coli NDM ? a; assay: as above; format: cell-based
Protocol: as §1

[3] = system: E. coli SH ? (APHA); assay: as above; format: cell-based
Protocol: as §1

[4] = system: E. coli TEM-206; assay: as above; format: cell-based; as to Interpretation: key: S, susceptible; I, intermediate; R, resistant
Protocol: as §1

[5] = system: E. coli TEM-148; format: cell-based; as to Interpretation: key: S, susceptible; I, intermediate; R, resistant
Protocol: as §1

[6] = system: E. coli TEM-30; format: cell-based; as to Interpretation: key: S, susceptible; I, intermediate; R, resistant
Protocol: as §1

[7] = system: E. coli TEM-104; format: cell-based; as to Interpretation: key: S, susceptible; I, intermediate; R, resistant
Protocol: as §1

[8] = system: E. coli TEM-1 ?; format: cell-based
Protocol: as §1

[9] = system: E. coli strain UZ_TEM104; format: cell-based; details: in presence of additive at 50 μg/mL
[10] = molecular target: T1, TEM-1 (Escherichia coli, UniProt P62593); assay: thermal denaturation with right-angle/static light scattering (aggregation) in presence of beta-lactamase inhibitors; format: biochemical, E. coli; details: TEM-1, dose titration of inhibitor
T1 construct: DNA TEM (870 bp) or SHV (894 bp) were each sub-cloned into a PUC57 vector cloning site NdeI/XhoI; His-tag (N); TEV cleavage site (N); made in house; host or cells: E. coli BL21 (DE3)
Text: (FIG. 1E) Heat denaturation of TEM-1 monitored by intrinsic fluorescence plotted as the BaryCentric Mean (BCM) of the fluorescence emission spectrum in the presence (red) and absence (blue) of tazobactam. […] (FIG. 1F) Temperature-dependent evolution of the Right-Angle Light Scattering (RALS) intensity measured simultaneously with the data in FIG. 1G to monitor protein aggregation. […] (FIGS. 1G, 1H, 1I, and 1J) Same data as in FIG. 1F, but showing a dose-titration of different beta-lactamase inhibitors: tazobactam (FIG. 1G), clavulanate (FIG. 1H), vaborbactam (FIG. 1I) and avibactam (FIG. 1J). Each curve a single experiment, which was repeated in triplicate.
Then, we performed a thermal denaturation whilst simultaneously monitoring the intrinsic fluorescence as a measure of the folding status of the molecule (FIG. 1E), and the static light scattering as a measure of aggregation (FIG. 1F).

[11] = system: E. coli strain UZ_TEM104; format: cell-based; details: peptide alone
Text: In order to generate a synthetic amyloid peptide capable of inactivating the TEM-1 beta-lactamase enzyme by capitalizing on its aggregation propensity, we applied a previously developed design pattern for synthetic aggregating sequences. This involves a tandem repeat of the APR, each instance flanked by charged amino acids for solubility and separated by a short peptide linker^19,20,23 (FIG. 2G). Previous work has shown that good bacterial uptake can be achieved using one positively charged arginine residue on the N-terminal side of each APR in the tandem and two arginine residues on the C-terminal side. This has the additional benefit of reducing the self-aggregation of the peptides and increasing their solubility prior to target engagement. As before, we employed a single Pro residue as a linker between the APRs and focused on an APR length of seven, extending shorter APRs to this length by incorporating flanking amino acids unless they were obvious aggregation breakers (Arg, Lys, Asp, Glu or Pro, see Table 1). We obtained these peptides from solid phase synthesis, followed by HPLC purification to a purity judged by reverse phase chromatography of at least 90% (Genscript).
Determination of MIC values using the broth microdilution in the 96-well plate (BD Biosciences, Belgium) according to the EUCAST guideline, which was performed in 96-well polystyrene flat bottom microtiter plates (BD Biosciences). Briefly, a single colony was inoculated into 5 mL Difco™ Mueller Hinton Broth (BD Biosciences Ref 275730) and grown to the end-exponential growth phase in a shaking incubator at 37° C. Cultures were subsequently diluted to an MacFarland (0.5 optical density) then the culture was diluted to reach 10^6 CFU/mL in fresh MHB medium. 50 μl of different concentration of peptides ranging from 128 to 2 μg/mL were serially diluted to the sterile 96-well plate in MHB. 50 μL of the diluted bacteria in MHB were pipetted into 96-well plates to reach the final volume of 100 μL. The bacteria grown with the maximum concentration of carrier and medium were considered as positive and negative controls, respectively. The plates were statically incubated overnight at 37° C. to allow bacterial growth. OD was measured at 590 nm a multipurpose ultraviolet-visible plate reader, and the absorbance of the growth bacteria was measured using absorbance reader. Bacterial growth was also visually inspected and agreed well with the OD reading.
For Interpretation in this document: key: S, susceptible; I, intermediate; R, resistant.

T1 sequence (P62593 24-286 limits assumed): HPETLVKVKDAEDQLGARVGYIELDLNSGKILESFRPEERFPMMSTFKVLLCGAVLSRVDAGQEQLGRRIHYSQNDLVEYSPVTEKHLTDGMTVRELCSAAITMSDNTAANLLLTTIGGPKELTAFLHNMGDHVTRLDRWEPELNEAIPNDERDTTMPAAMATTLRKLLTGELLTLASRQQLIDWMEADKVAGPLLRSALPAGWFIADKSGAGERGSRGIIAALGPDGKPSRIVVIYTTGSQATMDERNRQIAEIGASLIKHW

| Molecule | Interpretation [1] | MIC [1] [µg/mL] | Interpretation [2] | MIC [2] [µg/mL] | Interpretation [3] | Interpretation [4] | Interpretation [5] | MIC [5] [µg/mL] | Interpretation [6] | MIC [6] [µg/mL] | Interpretation [7] | Interpretation [8] | MIC [8] [µg/mL] | MIC penicillin [9] [µg/mL] | MIC peptide [11] [µg/mL] | other results |
| --- | --- | --- | --- | --- | --- | --- | --- | --- | --- | --- | --- | --- | --- | --- | --- | --- |
| CO/N=C(\C(=O)N[C@@H]1C(=O)N2C(C(=O)O)=C(COC(C)=O)CS[C@H]12)c1csc(N)n1 [Cef ? axime] | R | ≥ 64 | R | ≥ 64 | R | R | R | 16 (≈ 35.1 µM) | R | 4 (≈ 8.78 µM) | S | R | ≥ 64 |  |  | MIC [3]: ≥ 64 µg/mL; MIC [4]: ≥ 64 µg/mL; MIC [7]: ≤ 1 µg/mL |
| C[C@@H](O)[C@H]1C(=O)N2C(C(=O)O)=C(S[C@@H]3CN[C@H](C(=O)N(C)C)C3)[C@H](C)[C@H]12 [Meropen ? m] | I | 8 (≈ 20.9 µM) | R | ≥ 16 | S | S | S | ≤ 0.25 | S | ≤ 0.25 | S | S | ≤ 0.25 |  |  | MIC [3]: ≤ 0.25 µg/mL; MIC [4]: ≤ 0.25 µg/mL |
| O=C1CN(/N=C/c2ccc([N+](=O)[O-])o2)C(=O)N1 [Nitrofuran ?] | R | 64 (≈ 269 µM) | R | 64 (≈ 269 µM) | S | S | S | 32 (≈ 134 µM) | S | 32 (≈ 134 µM) | S | S | ≤ 16 |  |  | MIC [3]: ≤ 16 µg/mL |
| CC(=O)N[C@@H](CCCNC(=N)N)C(=O)N[C@@H](Cc1ccccc1)C(=O)N[C@@H](Cc1ccccc1)C(=O)N[C@@H](C)C(=O)N[C@@H](C)C(=O)N[C@@H](Cc1ccccc1)C(=O)N[C@@H](CS)C(=O)N[C@@H](CC(C)C)C(=O)N[C@@H](CCCNC(=N)N)C(=O)N[C@@H](CCCNC(=N)N)C(=O)N[C@@H](CCCNC(=N)N)C(=O)N1CCC[C@H]1C(=O)N[C@@H](Cc1ccccc1)C(=O)N[C@@H](Cc1ccccc1)C(=O)N[C@@H](C)C(=O)N[C@@H](C)C(=O)N[C@@H](Cc1ccccc1)C(=O)N[C@@H](CS)C(=O)N[C@@H](CC(C)C)C(=O)N[C@@H](CCCNC(=N)N)C(=O)N[C@@H](CCCNC(=N)N)C(N)=O [TEM1.0] (Ac-RFFAAFCLRRRPFFAAFCLRR-NH2) |  |  |  |  |  |  |  |  |  |  |  |  |  | 1600 |  |  |
| NC(=O)[C@@H]1CC[C@@H]2CN1C(=O)N2OS(=O)(=O)O [avibactam] |  |  |  |  |  |  |  |  |  |  |  |  |  |  |  | aggregation of the enzyme (static light scattering), dose-response [10]: reduce the aggregation of the enzyme in a dose-responsive manner |
| O=C(O)[C@H]1/C(=C/CO)O[C@@H]2CC(=O)N21 [clavulanate] |  |  |  |  |  |  |  |  |  |  |  |  |  |  |  | aggregation of the enzyme (static light scattering), dose-response [10]: reduce the aggregation of the enzyme in a dose-responsive manner |
| O=C(O)C[C@@H]1CC[C@H](NC(=O)Cc2cccs2)B(O)O1 [vaborbactam] |  |  |  |  |  |  |  |  |  |  |  |  |  |  |  | aggregation of the enzyme (static light scattering), dose-response [10]: reduce the aggregation of the enzyme in a dose-responsive manner |
| Ac-RAGWFIARRPRAGWFIARR-NH2 [TEM5.0] |  |  |  |  |  |  |  |  |  |  |  |  |  | 1600 | 100 |  |
| Ac-RGIIAALGRRPRGIIAALGRR-NH2 [TEM6.0] |  |  |  |  |  |  |  |  |  |  |  |  |  | 1600 | >100 |  |
| Ac-RIVVIYTTRRPRIVVIYTTRR-NH2 [TEM7.0] |  |  |  |  |  |  |  |  |  |  |  |  |  | 1600 | >100 |  |
| Ac-RLLLTTIGRRPRLLLTTIGRR-NH2 [TEM2.0] |  |  |  |  |  |  |  |  |  |  |  |  |  | 800 | >100 |  |
| Ac-RLLTLASRRPRLLTLASRR-NH2 [TEM4.0] |  |  |  |  |  |  |  |  |  |  |  |  |  | 1600 | 100 |  |
| Colistin | S | ≤ 0.5 | S | ≤ 0.5 | S | S | S | ≤ 0.5 | S | ≤ 0.5 | S | S | ≤ 0.5 |  |  | MIC [3]: ≤ 0.5 µg/mL; MIC [4]: ≤ 0.5 µg/mL; MIC [7]: ≤ 0.5 µg/mL |
| Gentamicin | S | ≤ 1 | R | ≥ 16 | R | S | S | ≤ 1 | R | ≥ 16 | S | S | ≤ 1 |  |  | MIC [4]: ≤ 1 µg/mL; MIC [7]: ≤ 1 µg/mL |
